Assays:
[1] = test system: targets in the SAFETYscan47 panel; assay: SAFETYscan47 panel (DiscoverX), whole panel; details: 3 µM, duplicates, all targets
Experimental: (§1) To further profile any off-target activity, we counter-screened SHR168442 in SAFETYscan47 panel, compiled by DiscoverX based on the recommendation by major pharmaceutical companies. SHR168442 was screened at 3 µM in duplicates.

[2] = Liver microsomal stability, rat; format: in vitro ADME; details: liver microsomes, pH 7.4, read-out: Liver microsomal stability, t1/2, Rat
Experimental: (§2) The compound was mixed with 0.5 mg/ml human liver microsome (Thermal Fisher) at a final concentration of 1 µM in 100 mM potassium phosphate buffer, pH 7.4. The reactions were initiated by the addition of 1 mM NADPH. Samples in duplicate were incubated at 37 °C with mixing. 100 µL aliquots were transferred after 0, 5, 10, 30, 45, 60 minutes to a new tube with 300 µL acetonitrile, incubated on ice for 30 minutes, centrifuged at 1800×g at 4 °C for 10 minutes. The supernatants were transferred to glass vials subjected to LC/MS analysis. Peak areas were measured to calculate half-life according to the formula t1/2 = − 0.693/slope of linear regression analysis of ln [concentration] versus incubation time. Similar methods were applied to access mouse and rat liver microsomal stability of the compounds.

[3] = test system: GABAA; assay: SAFETYscan47 Ion Channel; format: cell-based; details: 3 µM
Experimental: as §1

[4] = target: T1, hERG (Homo sapiens, UniProt Q12809); assay: SAFETYscan47 Ion Channel; format: cell-based; details: Blocker; 3 µM
T1 construct: purchased DiscoverX (Eurofins) SAFETYscan47
Experimental: as §1

[5] = Dermal PK, BALB/c mouse; format: in vivo; details: for Exposure in plasma: 2% in Vaseline, topical
Experimental: (§3) The dermal PK studies of Compound 1 in Vaseline were performed in dorsal skin of female C57BL/6 and male BALB/c mice via topical route. The skin (1.5 cm × 2 cm) was shaved one day prior to the dosing. At tissue collecting time point, the skin surface was decontaminated (twice with hand soap, twice with water, alternatively, and dried with tissue swabs). Stratum corneum is removed with tape strips for five times. The tissues were homogenized for PK analyses of Compound 1 by LC/MS.

[6] = Oral PK in SD rats; format: in vivo; details: male, rat, plasma, 2 mg/kg oral
Experimental: Compounds were dissolved in 5% DMSO, 5% tween 80 and then added 90% saline. Male SD rats were dosed with the compound via oral (2 mg/kg or 5 mg/kg) routes, respectively after fasting overnight. Blood of the animals were collected at indicated time post dosing. Blood samples were then prepared for plasma and analyzed for the compounds using validated LC/MS assays. The experimental protocol used in this study was approved by IACUC. The experiments were conducted in accordance with the Guiding Principles for the Care and Use of Laboratory Animals and complied with the ARRIVE guidelines.

[7] = test system: IL-17 secretion from human PBMCs; assay: Human IL-17 production assay using human PBMC; format: cell-based; details: cytostim stimulation 72 h
Experimental: To confirm cellular on-target effects, we investigated the inhibition of selected RORγ antagonists on RORγ-regulated IL-17 secretion using human PBMC. Human IL-17-producing cells were readily formed following cytostim stimulation. In human PBMC stimulated with cytostim for 72 h, differentiation of Th17 cells was confirmed by increased secretion of IL-17 (291 pg/mL) in cell culture supernatant compared to basal level of IL-17 (20 pg/mL IL-17 without cytostim stimulation), […] of IL-17 secretion.
Human PBMCs (Zenbio) in TexMACS media were stimulated by cytostim (Miltenyi) for 72 h following the vendor's instruction. Human IL-17A in cell culture supernatant was measured using AlphaLISA human IL-17A Biotin-free detection kit (Perkin Elmer) according to the manufacturer’s protocol.

[8] = target: T2, RORγ (Homo sapiens, UniProt P51449); assay: RORγ luciferase reporter assay; format: cell-based; details: nuclear reporter assay, n = 3; read-out: inhibition of the RORγ transcriptional activity, average IC50
T2 sequence (P51449 260-518 limits assumed): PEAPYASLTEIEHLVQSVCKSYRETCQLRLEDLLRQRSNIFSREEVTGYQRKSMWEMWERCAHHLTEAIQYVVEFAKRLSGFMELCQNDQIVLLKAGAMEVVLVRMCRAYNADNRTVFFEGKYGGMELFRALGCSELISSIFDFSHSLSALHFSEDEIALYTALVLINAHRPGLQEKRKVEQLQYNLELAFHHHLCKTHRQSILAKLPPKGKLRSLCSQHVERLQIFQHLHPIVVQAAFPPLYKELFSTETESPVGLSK
Experimental: Ursolic acid was used as a positive control.
Cell-based luciferase reporter assays for RORα and RORγ (Indigo Biosciences) were performed according to the manufacturer’s protocol.

[9] = in vivo; details: female, C57BL/6, mouse
Experimental: as §3

[10] = Liver microsomal stability, mouse; format: in vitro ADME; details: liver microsomes, pH 7.4, read-out: Liver microsomal stability, t1/2, Mouse
Experimental: as §2

T1 sequence (Q12809 whole entry): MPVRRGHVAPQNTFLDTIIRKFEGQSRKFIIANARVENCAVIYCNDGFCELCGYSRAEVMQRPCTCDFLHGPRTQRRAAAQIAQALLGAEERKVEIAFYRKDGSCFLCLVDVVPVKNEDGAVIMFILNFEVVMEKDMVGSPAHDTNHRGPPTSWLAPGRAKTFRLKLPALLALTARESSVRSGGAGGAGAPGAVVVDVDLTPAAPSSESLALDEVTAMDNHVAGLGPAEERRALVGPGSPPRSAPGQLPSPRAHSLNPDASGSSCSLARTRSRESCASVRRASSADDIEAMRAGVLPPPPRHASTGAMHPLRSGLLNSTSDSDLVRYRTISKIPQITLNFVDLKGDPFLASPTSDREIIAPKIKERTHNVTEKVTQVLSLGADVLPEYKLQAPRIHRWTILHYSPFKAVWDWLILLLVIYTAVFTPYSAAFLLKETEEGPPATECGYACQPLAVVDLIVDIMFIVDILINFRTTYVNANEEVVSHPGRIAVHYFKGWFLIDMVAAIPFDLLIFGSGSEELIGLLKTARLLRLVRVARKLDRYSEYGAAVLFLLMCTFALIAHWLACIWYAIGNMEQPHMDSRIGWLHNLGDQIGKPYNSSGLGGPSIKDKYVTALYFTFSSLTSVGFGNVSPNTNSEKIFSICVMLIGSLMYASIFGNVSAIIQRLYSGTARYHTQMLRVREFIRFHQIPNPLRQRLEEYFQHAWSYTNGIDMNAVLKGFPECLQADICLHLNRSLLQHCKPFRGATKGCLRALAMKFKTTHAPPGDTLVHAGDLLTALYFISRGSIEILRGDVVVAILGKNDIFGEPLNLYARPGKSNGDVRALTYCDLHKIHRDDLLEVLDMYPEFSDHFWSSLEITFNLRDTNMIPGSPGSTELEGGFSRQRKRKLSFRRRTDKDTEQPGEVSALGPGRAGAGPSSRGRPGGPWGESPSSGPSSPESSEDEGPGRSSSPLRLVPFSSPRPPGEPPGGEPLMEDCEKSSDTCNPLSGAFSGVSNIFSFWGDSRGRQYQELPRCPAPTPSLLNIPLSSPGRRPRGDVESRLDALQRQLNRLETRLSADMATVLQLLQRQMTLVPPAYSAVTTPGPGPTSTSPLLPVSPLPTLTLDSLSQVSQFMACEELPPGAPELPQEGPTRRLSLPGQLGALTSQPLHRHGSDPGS

CCS(=O)(=O)c1ccc([C@H](CCO)c2nc3c(Cl)c(N4CCC(F)(F)CC4)c(Cl)cc3[nH]2)cc1 [SHR168442, (S)-3-(4,6-dichloro-5-(4,4-difluoropiperidin-1-yl)-1H-benzo[d]imidazol-2-yl)-3-(4-(ethylsulfonyl)phenyl)propan-1-ol]
inhibition of the targets in the SAFETYscan47 panel [1]: below 50% | half-life at 1 µM [2]: 8.6 min | % Response Average ([3]; Blocker): 7.4% | % Response Replicate 1 ([3]; Blocker): 4.6% | % Response Replicate 2 ([3]; Blocker): 10.1% | % Response Average ([3]; Opener): 2.5% | % Response Replicate 1 ([3]; Opener): 3.2% | % Response Replicate 2 ([3]; Opener): 1.9% | % Response Average [4]: 4.9% | % Response Replicate 1 [4]: 6.5% | % Response Replicate 2 [4]: 3.2% | Exposure in plasma ([5]; 3 h): blq (below limit of quantitation (< 6 ng/mL)) | Exposure in plasma ([5]; 6 h): blq (below limit of quantitation (< 6 ng/mL)) | concentration at 3 h ([5]; male, BALB/c, mouse, in vivo): 2460 ng/g | concentration at 6 h ([5]; male, BALB/c, mouse, in vivo): 4390 ng/g | AUC ([6]; read-out: Exposure in SD Rat, AUC): 59 ng·h/mL | Cmax ([6]; read-out: Exposure in SD Rat, Cmax): 9.5 ng/mL | half-life ([6]; read-out: Exposure in SD Rat, t1/2 (converted)): 372 min | EC50 [7]: 20 ± 6 nM | IC50 [7]: 20 nM | IC50 [8]: 15 ± 9 nM | Exposure in plasma ([9]; 3 h): 7.0 ng/mL | Exposure in skin ([9]; 6 h): 18,500 ng/g | concentration at 3 h ([9]; Exposure in plasma): 8.8 ng/mL | concentration at 6 h ([9]; Exposure in skin): 9710 ng/g | half-life at 1 µM [10]: 6.2 min

Reference: article PMC8080595, “Discovery of a novel RORγ antagonist with skin-restricted exposure for topical treatment of mild to moderate psoriasis” (Scientific Reports, 2021)
